Values quoted from earlier work, collected in patent publication US20050255458A1, “Drug discovery assays based on the biology of chronic disease” (priority 2002, published 2005).
Counter-ions that a name gives are not always drawn. Like-named read-outs stand apart in the source and are kept apart here.

What was measured:
ERK1 and ERK2 = conditions: cited from earlier work; for MAPK activation: Wen 1996, Rao 1994
AT1-receptor = target: T1, AT1-receptor (Oryctolagus cuniculus, UniProt P34976); conditions: cited from earlier work
T1 construct: from tissue; host or cells: whole animal: Watanabe and New Zealand White rabbits
T1 sequence (P34976 1-359): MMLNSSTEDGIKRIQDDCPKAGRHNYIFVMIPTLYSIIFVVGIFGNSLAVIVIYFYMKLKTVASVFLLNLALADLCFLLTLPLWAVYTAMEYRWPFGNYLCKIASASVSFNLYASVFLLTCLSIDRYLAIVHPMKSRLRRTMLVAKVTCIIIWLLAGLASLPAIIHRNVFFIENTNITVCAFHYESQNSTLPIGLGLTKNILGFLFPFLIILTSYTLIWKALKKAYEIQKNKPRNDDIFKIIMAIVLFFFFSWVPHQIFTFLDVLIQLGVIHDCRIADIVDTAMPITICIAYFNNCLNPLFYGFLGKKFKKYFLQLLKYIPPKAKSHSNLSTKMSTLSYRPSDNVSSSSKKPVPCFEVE

GABP = conditions: 3T3 cells treated 2 h; single and double N-box probes; cited from earlier work
double N-box-TATA-Luc = conditions: cited from earlier work; for decrease in luciferase expression: double N-box-TATA-Luc
apoE(−/−) mice = conditions: 48 hours post injection; cited from earlier work
ERK [1] = conditions: SW-13 human adrenal carcinoma; cited from earlier work
AR gene = conditions: LNCaP; cited from earlier work
papilla cells = conditions: cited from earlier work
[2] = system: hair follicles (onset of anagen); conditions: topical 10 nmol twice weekly, female CD-1 mice; cited from earlier work
anagen hair follicles = conditions: Kondo 1990; cited from earlier work
NF-κB [3] = conditions: cited from earlier work
DC = conditions: inhaled; cited from earlier work
TF [4] = conditions: cited from earlier work
TF [5] = conditions: cited from earlier work; remark: listed apart in the source
ACE = target: T2, ACE (Mesocricetus auratus, UniProt Q50JE5); conditions: cited from earlier work
T2 construct: from tissue; host or cells: whole animal, in vivo (hamster)
T2 sequence (Q50JE5 36-1314): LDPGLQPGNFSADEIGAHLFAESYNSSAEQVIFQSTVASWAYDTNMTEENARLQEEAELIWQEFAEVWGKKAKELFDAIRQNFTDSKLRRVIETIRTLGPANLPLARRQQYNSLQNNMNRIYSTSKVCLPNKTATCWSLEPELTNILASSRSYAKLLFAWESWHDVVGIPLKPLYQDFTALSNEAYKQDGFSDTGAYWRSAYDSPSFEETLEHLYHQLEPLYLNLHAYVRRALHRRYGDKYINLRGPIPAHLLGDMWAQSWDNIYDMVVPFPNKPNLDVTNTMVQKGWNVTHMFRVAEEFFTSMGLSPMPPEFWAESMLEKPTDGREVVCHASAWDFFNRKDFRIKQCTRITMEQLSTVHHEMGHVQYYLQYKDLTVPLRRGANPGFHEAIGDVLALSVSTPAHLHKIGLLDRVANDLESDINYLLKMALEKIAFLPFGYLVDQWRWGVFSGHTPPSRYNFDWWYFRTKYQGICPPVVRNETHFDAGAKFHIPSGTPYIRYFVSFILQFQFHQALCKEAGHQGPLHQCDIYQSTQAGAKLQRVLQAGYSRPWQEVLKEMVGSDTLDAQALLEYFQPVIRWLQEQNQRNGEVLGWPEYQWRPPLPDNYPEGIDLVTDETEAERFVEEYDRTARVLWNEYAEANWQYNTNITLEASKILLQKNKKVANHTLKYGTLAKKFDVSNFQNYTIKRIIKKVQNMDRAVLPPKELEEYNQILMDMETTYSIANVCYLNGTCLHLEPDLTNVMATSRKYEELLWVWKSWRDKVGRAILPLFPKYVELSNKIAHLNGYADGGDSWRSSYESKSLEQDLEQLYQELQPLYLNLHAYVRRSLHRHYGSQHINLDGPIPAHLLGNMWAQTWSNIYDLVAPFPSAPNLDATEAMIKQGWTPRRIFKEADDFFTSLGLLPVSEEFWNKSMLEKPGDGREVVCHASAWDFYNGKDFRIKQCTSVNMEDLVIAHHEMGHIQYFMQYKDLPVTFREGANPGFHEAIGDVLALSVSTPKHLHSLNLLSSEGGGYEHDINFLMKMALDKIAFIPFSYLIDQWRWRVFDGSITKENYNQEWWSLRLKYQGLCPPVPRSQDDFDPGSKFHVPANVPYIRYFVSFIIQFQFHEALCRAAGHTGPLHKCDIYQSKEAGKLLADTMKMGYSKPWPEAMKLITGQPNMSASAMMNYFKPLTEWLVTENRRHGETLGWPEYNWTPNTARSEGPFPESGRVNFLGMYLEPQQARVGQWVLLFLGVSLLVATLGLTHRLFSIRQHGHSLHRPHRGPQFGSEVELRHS

[6] = system: hamsters on a high-cholesterol diet; conditions: 8 weeks, cited from earlier work
ERK [7] = conditions: adipocytes; cited from earlier work
[8] = system: abdominal subcutaneous adipocytes; conditions: obese vs non-obese (Hellstrom 2000); cited from earlier work
[9] = system: ocular melanoma cell lines; conditions: cited from earlier work
ERK [10] = conditions: Jurkat cells; cited from earlier work
NF-κB [11] = conditions: various cells and tissues; cited from earlier work
apo(a) transgenic mice = conditions: 12 weeks; cited from earlier work
fibronectin = conditions: cited from earlier work
20-3 cells = conditions: cited from earlier work

Molecule: CCCCC/C=C\C[C@H](O)/C=C/C=C\C/C=C\CCCC(=O)O [12-HETE]
- MAPK activation (ERK1 and ERK2): activation of MAPK

Molecule: CCCCC[C@H](O)/C=C/C=C\C/C=C\C/C=C\CCCC(=O)O [15-HETE]
- MAPK activation (ERK1 and ERK2): activation of MAPK

Molecule: O=C(O)CCC/C=C\C/C=C\C/C=C\C/C=C\CCCCCO [20-HETE, 20-hydroxyeicosatetraenoic acid]
- ERK1 and ERK2 activation (ERK1 and ERK2; 0.25 μM, 10 min): activated ERK1 and ERK2

Molecule: CCCCc1cc(C(=O)OC)cc(=O)n1Cc1ccc(-c2ccccc2-c2nnn[nH]2)cc1F [Bay 10-6734]
- fat-stained area in the aorta (AT1-receptor; 25 mg/kg/day, high-cholesterol diet): 5.3±1.4%
- % of macrophage stained area/total plaque cross sectional area (AT1-receptor; 25 mg/kg/day): 1±0.2%
- cholesterol levels (AT1-receptor; hyperlipidemic or control animals): did not change the cholesterol levels

Molecule: CCOC(=O)/C=C\C(=O)OCC [DEM, diethyl maleate]
- GABP DNA binding activity (EMSA) (GABP): decreased formation
- luciferase expression from C/EBP-TA-Luc (double N-box-TATA-Luc; 6 or 8 h treatment): no effect
- decrease in luciferase expression (double N-box-TATA-Luc; 6 h): 28%
- decrease in luciferase expression (double N-box-TATA-Luc; 8 h): 62%

Molecule: CCCCCCCCCCCCCCCC(=O)OC[C@H](COP(=O)([O-])OCC[N+](C)(C)C)OC(=O)CCCCCCCCCCCCCCC [DPPC, dipalmitoylphosphatidylcholine]
- lipid content of aortic sinus (apoE(−/−) mice): 18.1±4.7 % of plaque area
- macrophage content of aortic sinus (apoE(−/−) mice): 9.3±5.8 % of plaque area

Molecule: C[C@]12CC[C@H]3[C@@H](CCC4=CC(=O)CC[C@@]43C)[C@@H]1CC[C@@H]2O [Testosterone]
- Effect on [ERK^phos] (ERK [1]): ↑[ERK^phos]
- Effect on [mRNAAR] (AR gene): ↓[mRNAAR]
- papilla cell proliferation (papilla cells; 345 nM, 14 days): significantly decreased papilla cell proliferation
- dermal papilla cell proliferation (papilla cells; 10^−10 to 10^−7 M, alone or co-cultured (Obana 1997)): no effect
- concentrations with no significant effect on papilla cell proliferation (papilla cells; Kiesewetter 1993): lower than 173 nM
- delay in hair regrowth [2]: small delay
- growth of isolated hair follicles (anagen hair follicles): growth inhibition

Molecule: CCC(=O)OCC(=O)[C@@]1(OC(=O)CC)[C@@H](C)C[C@H]2[C@@H]3CCC4=CC(=O)C=C[C@]4(C)[C@@]3(Cl)[C@@H](O)C[C@@]21C [beclomethasone dipropionate]
- NF-κB activation (NF-κB [3]): decreases NF-κB activation
- number of DC in asthma (DC): decreased the excessive number of DCs in asthma

Molecule: C[C@H](CS)C(=O)N1CCC[C@H]1C(=O)O [captopril]
- nuclear translocation of c-Rel/p65 induced by endotoxin (TF [4]; 20 μg/mL): almost completely inhibited
- TF activity (TF [4]; dose-dependent): decreased TF activity
- level of TF antigen and mRNA in the cultured cells (TF [5]): decreased the level of TF antigen and mRNA
- decrease in HDL (ACE; 100 mg/kg/day, 6 weeks, vs week 3 and 4): 24%
- number of subendothelial macrophage derived foam cells (ACE; 100 mg/kg/day, after 6 weeks of treatment): 52±9 cell/mm^2
- area of extracellular lipid particles (ACE; after 6 weeks of treatment): 157±36 μm2×1,000
- area of fatty streak (ACE; after 6 weeks of treatment): 55±12 μm2×1,000
- average size of a foam cell (ACE; after 6 weeks of treatment): 89±5 μm^2
- cell size of macrophage derived foam cells [6]: did not change the cell size
- decrease of fatty streak area [6]: 35%
- heart rate [6]: 348±6 beats/min
- mean arterial pressure [6]: 110±5 mm Hg
- subendothelial number of macrophage derived foam cells in the aortic arch [6]: 108±10 cells/mm^2
- plasma total cholesterol ([6]; pravastatin 34, captopril 100 mg/kg/day): did not change plasma lipids

Molecule: CCCC(=O)Nc1ncnc2c1ncn2[C@@H]1O[C@@H]2COP(=O)(O)O[C@H]2[C@H]1OC(=O)CCC [dibutyryl cAMP, dibutyryl cyclic AMP]
- ERK activation (ERK [7]): activated ERK
- decrease in maximum induced glycerol release [8]: 50%

Molecule: C[C@H](CCC(=O)O)C[C@H](C)C[C@H](C)C(=O)/C=C(\O)[C@H](C)C[C@H](C)C/C=C/[C@@H](C)[C@@H](O)[C@@H](C)[C@@H](O)C[C@@H]1CC[C@@](C)([C@H]2CC[C@@](C)([C@@H](C)O)O2)O1 [ionomycin]
- cell attachment to plates coated with fibronectin and other matrix proteins [9]: Significant inhibition
- ERK phosphorylation (ERK [10]): increased ERK phosphorylation

Molecule: CC[C@H](C)C(=O)O[C@H]1CCC=C2C=C[C@H](C)[C@H](CC[C@@H]3C[C@@H](O)CC(=O)O3)[C@H]21 [mevastatin]
- NF-κB activation (NF-κB [11]): inhibited NF-κB activation

Molecule: O=C(O)C[C@H](O)C[C@H](O)/C=C/c1c(C2CC2)nc2ccccc2c1-c1ccc(F)cc1 [pitavastatin]
- NF-κB activation (NF-κB [11]): inhibited NF-κB activation

Molecule: CC/C(=C(\c1ccccc1)c1ccc(OCCN(C)C)cc1)c1ccccc1 [tamoxifen]
- decrease of area of focal apo(a) accumulation (apo(a) transgenic mice): 97%
- decrease of average level of apo(a) in the vessel wall (apo(a) transgenic mice): 69%
- decrease of lesion area (apo(a) transgenic mice): 92%
- decrease of number of lipid lesions (apo(a) transgenic mice): 80%
- cell attachment to plates coated with fibronectin and other matrix proteins [9]: significant inhibition of cell attachment

Molecule: NCCCCCC(=O)O [ε-ACA]
- Lp(a) binding to fibronectin (fibronectin): not effective against Lp(a) binding to fibronectin
- binding of plasminogen to fibronectin (fibronectin): inhibited binding of plasminogen to fibronectin

Molecule: TGFβ1: transforming growth factor-β1
- labeling index after treatment (20-3 cells; 5 ng/ml, 72 h, permissive temperature (from 95%)): 80%
- labeling index after treatment (20-3 cells; 72 h non-permissive then 24 h permissive (from 60%)): below 10%
- labeling index after treatment (20-3 cells; non-permissive temperature (from 20%)): less than 5%
